The target of assay [1] is IRAK4 (Homo sapiens (Human), UniProt Q9NWZ3). In words: IRAK4 Inhibition Assay. Type of assay: biochemical. The conditions noted are these: ATP 500 μM; IRAK4 0.6 nM; 60 min room temperature. In short, it runs like this: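 Phosphorylated and unphosphorylated fluorescent substrate were resolved by microfluidic electrophoresis after termination with 35 mM EDTA. The room-temperature kinase reaction lasted 60 min after IRAK4, substrates and test compound were combined; vehicle-only defined 0% and no-enzyme 100% inhibition.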

Assay [2] deals with JAK3 kinase (Homo sapiens (Human), UniProt P52333). Nature of the assay: JAK3 Homogeneous Time Resolved Fluorescence (HTRF) Assay. It counts as binding. The conditions noted are these: for IC50: competition binding with fluorescein-labeled ATP competitive probe; for Ratio of JAK3 IC50 to IRAK4 IC50: selectivity for IRAK4 over JAK3. An outline of the steps: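 IC50 reflects displacement of a fluorescein-labeled ATP-site probe (at its Kd) from 1 nM tagged JAK3, detected via 0.2 nM Tb anti-His or anti-GST antibody. One-hour incubation; 495 and 520 nm emission ratios, background-subtracted, normalized to maximum signal; 11-point percent inhibition, 4-parameter logistic.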

Data on 17 molecules can be found in patent publication US12570659B2, “Bicyclic heteroaryl compounds useful as IRAK4 inhibitors” (BRISTOL-MYERS SQUIBB COMPANY, priority 2019, dated 2026).

Chain of IRAK4 (Q9NWZ3 whole entry, species assumed): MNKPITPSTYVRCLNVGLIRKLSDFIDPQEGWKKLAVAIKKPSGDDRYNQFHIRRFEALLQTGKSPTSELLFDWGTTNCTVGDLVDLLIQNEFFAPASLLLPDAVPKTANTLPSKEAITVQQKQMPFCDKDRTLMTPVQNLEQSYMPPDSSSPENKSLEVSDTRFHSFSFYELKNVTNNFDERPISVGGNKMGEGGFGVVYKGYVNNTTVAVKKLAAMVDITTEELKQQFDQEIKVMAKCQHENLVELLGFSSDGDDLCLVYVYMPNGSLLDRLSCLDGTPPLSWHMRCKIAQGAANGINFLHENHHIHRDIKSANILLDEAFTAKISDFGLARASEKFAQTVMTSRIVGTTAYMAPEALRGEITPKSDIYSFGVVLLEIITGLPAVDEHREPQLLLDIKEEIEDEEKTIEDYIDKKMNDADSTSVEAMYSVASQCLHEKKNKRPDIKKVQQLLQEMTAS
Chain of JAK3 kinase (P52333 whole entry): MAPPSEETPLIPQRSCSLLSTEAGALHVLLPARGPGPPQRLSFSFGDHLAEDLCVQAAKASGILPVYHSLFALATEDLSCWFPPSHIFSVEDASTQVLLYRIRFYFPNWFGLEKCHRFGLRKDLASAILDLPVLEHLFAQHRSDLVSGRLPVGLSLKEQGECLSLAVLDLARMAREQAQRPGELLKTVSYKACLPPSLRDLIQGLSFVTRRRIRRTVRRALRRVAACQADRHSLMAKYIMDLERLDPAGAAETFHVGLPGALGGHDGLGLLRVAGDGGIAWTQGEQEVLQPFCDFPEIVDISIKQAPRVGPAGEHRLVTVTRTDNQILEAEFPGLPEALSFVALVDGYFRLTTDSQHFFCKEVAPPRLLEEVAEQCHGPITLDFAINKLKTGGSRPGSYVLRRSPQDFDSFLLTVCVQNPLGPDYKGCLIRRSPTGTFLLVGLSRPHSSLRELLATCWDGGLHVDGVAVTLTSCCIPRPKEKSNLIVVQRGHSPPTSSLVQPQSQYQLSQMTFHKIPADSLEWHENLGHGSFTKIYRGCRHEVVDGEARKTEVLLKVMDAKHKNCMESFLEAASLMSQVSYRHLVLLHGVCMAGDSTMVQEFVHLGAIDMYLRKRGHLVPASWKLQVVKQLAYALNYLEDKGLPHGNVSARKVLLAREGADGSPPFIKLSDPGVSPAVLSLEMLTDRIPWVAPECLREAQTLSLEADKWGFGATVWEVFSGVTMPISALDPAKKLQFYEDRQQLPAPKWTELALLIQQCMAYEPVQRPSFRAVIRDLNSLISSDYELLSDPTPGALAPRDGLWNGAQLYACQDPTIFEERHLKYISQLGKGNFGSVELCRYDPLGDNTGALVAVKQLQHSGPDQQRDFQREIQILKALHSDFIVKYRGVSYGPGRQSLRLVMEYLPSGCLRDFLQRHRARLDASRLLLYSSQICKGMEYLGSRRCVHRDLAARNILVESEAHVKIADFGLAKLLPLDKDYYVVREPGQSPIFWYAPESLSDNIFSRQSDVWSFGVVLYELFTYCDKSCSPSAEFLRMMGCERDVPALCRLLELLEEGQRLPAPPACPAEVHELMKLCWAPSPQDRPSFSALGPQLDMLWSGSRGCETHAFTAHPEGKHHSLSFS

For the molecule `CC(C)Nc1c(C(=O)NC[C@@H](F)C(C)(C)O)cnn2cc(Nc3ccncn3)cc12` [Example 43, (R)—N-(2-fluoro-3-hydroxy-3-methylbutyl)-4-(isopropylamino)-6-(pyrimidin-4-ylamino) pyrrolo[1,2-b] pyridazine-3-carboxamide], in assay [1], the IC50 was determined as 81 nM. In assay [2], the IC50 was greater than 50000 nM and the “Ratio of JAK3 IC50 to IRAK4 IC50” value is given as greater than 617.

In the case of `CC(=O)N[C@H]1CC[C@H](NC(=O)c2cnn3cc(-c4cn[nH]c4)cc3c2NC(C)C)CC1` [Example 61, N-((1r,4r)-4-acetamidocyclohexyl)-4-(isopropylamino)-6-(1H-pyrazol-4-yl)pyrrolo[1,2-b]pyridazine-3-carboxamide], the IC50 in assay [1] amounted to 11 nM. Moreover, in assay [2], the IC50 is greater than 50000 nM and the “Ratio of JAK3 IC50 to IRAK4 IC50” value was greater than 4545.

`CC(C)(O)[C@H](F)CNC(=O)c1cnn2cc(-c3cccnc3F)cc2c1NC1CCOCC1` [Example 8, (R)—N-(2-fluoro-3-hydroxy-3-methylbutyl)-6-(2-fluoropyridin-3-yl)-4-((tetrahydro-2H-pyran-4-yl)amino)pyrrolo[1,2-b]pyridazine-3-carboxamide]: the IC50 in assay [1] was found to be 25 nM. Also, in assay [2], the IC50 was greater than 50000 nM and the “Ratio of JAK3 IC50 to IRAK4 IC50” value was greater than 2000.

As to `CC(C)Nc1c(C(=O)NC[C@@H](F)C(C)(C)O)cnc2cc(-c3ncco3)nn12` [Example 134, (R)—N-(2-fluoro-3-hydroxy-3-methylbutyl)-7-(isopropylamino)-2-(oxazol-2-yl)pyrazolo[1,5-a]pyrimidine-6-carboxamide], the IC50 in assay [1] was 220 nM; in assay [2], greater than 50000 nM. Besides, the “Ratio of JAK3 IC50 to IRAK4 IC50” value in assay [2] is recorded as greater than 227.

Take `CC(C)Nc1c(C(=O)NC[C@@H](F)C(C)(C)O)cnn2cc(-c3cnoc3)cc12` [Example 44, (R)—N-(2-fluoro-3-hydroxy-3-methylbutyl)-4-(isopropylamino)-6-(isoxazol-4-yl)pyrrolo[1,2-b]pyridazine-3-carboxamide]: the IC50 in assay [1] worked out at 1500 nM. Besides, in assay [2], the IC50 was greater than 50000 nM and the “Ratio of JAK3 IC50 to IRAK4 IC50” value is greater than 33.

With `CC(C)(O)CCNc1c(C(=O)NC[C@@H](F)C(C)(C)O)cnn2cc(-c3ccncc3)cc12` [Example 28, (R)—N-(2-fluoro-3-hydroxy-3-methylbutyl)-4-((3-hydroxy-3-methylbutyl)amino)-6-(pyridin-4-yl)pyrrolo[1,2-b]pyridazine-3-carboxamide], the IC50 in assay [1] was 40.3 nM; in assay [2], greater than 50000 nM. Besides, the “Ratio of JAK3 IC50 to IRAK4 IC50” value in assay [2] was greater than 1241.

Take `CC(=O)N[C@H]1CC[C@H](NC(=O)c2cnn3cc(-c4c(C)ccnc4F)cc3c2NC(C)C)CC1` [Example 66, N-((1r,4r)-4-acetamidocyclohexyl)-6-(2-fluoro-4-methylpyridin-3-yl)-4-(isopropylamino)pyrrolo[1,2-b]pyridazine-3-carboxamide]: in assay [1], the IC50 was 59 nM. Also, in assay [2], the IC50 worked out at 18000 nM and the “Ratio of JAK3 IC50 to IRAK4 IC50” value worked out at 305.

For the molecule `CC(C)(O)[C@H](F)CNC(=O)c1cnc2cc(-c3cccnc3)nn2c1N[C@H]1CCC[C@H]1O` [Example 139, N—((R)-2-fluoro-3-hydroxy-3-methylbutyl)-7-(((1S,2R)-2-hydroxycyclopentyl)amino)-2-(pyridin-3-yl)pyrazolo[1,5-a] pyrimidine-6-carboxamide], the IC50 in assay [1] came out at 250 nM. In assay [2], the IC50 is greater than 50000 nM and the “Ratio of JAK3 IC50 to IRAK4 IC50” value was greater than 200.

As to `CC(=O)N[C@H]1CC[C@H](NC(=O)c2cnn3cc(-c4ccc(F)cn4)cc3c2NC(C)C)CC1` [Example 82, N-((1r,4r)-4-acetamidocyclohexyl)-6-(5-fluoropyridin-2-yl)-4-(isopropylamino)pyrrolo[1,2-b]pyridazine-3-carboxamide], the IC50 in assay [1] was determined as 34 nM. For the same molecule, in assay [2], the half-maximal inhibitory concentration (IC50) is greater than 50000 nM and the “Ratio of JAK3 IC50 to IRAK4 IC50” value is reported as greater than 1471.

With `CC(C)Nc1c(C(=O)NC[C@@H](F)C(C)(C)O)cnn2cc(-n3ncc4cc(C#N)cnc43)cc12` [Example 39, (R)-6-(5-cyano-1H-pyrazolo[3,4-b]pyridin-1-yl)-N-(2-fluoro-3-hydroxy-3-methylbutyl)-4-(isopropylamino) pyrrolo[1,2-b]pyridazine-3-carboxamide], the IC50 was 21 nM in assay [1] and greater than 50000 nM in assay [2]. In assay [2], the “Ratio of JAK3 IC50 to IRAK4 IC50” value was greater than 2381.

With `CC(C)Nc1c(C(=O)NC[C@@H](F)C(C)(C)O)cnn2cc(-c3ccnn3C)cc12` [Example 33, (R)—N-(2-fluoro-3-hydroxy-3-methylbutyl)-4-(isopropylamino)-6-(1-methyl-1H-pyrazol-5-yl) pyrrolo[1,2-b]pyridazine-3-carboxamide], the IC50 in assay [1] is 26 nM. Further, in assay [2], the IC50 is greater than 50000 nM and the “Ratio of JAK3 IC50 to IRAK4 IC50” value is listed as greater than 1923.

For `CC(=O)N1CCC(NC(=O)c2cnn3cc(-c4ccncc4F)nc3c2NC(C)C)CC1` [Example 112, N-(1-acetylpiperidin-4-yl)-2-(3-fluoropyridin-4-yl)-8-(isopropylamino)imidazo[1,2-b]pyridazine-7-carboxamide], in assay [1], the IC50 was 11 nM. Also, in assay [2], the IC50 is greater than 10000 nM and the “Ratio of JAK3 IC50 to IRAK4 IC50” value is listed as greater than 909.

As to `CC(C)Nc1c(C(=O)NC[C@@H](F)C(C)(C)O)cnc2cc(-c3ccccc3F)nn12` [Example 135, (R)—N-(2-fluoro-3-hydroxy-3-methylbutyl)-2-(2-fluorophenyl)-7-(isopropylamino)pyrazolo[1,5-a]pyrimidine-6-carboxamide], the half-maximal inhibitory concentration (IC50) in assay [1] came to 22 nM. In addition, in assay [2], the 50% inhibitory concentration (IC50) was greater than 10000 nM and the “Ratio of JAK3 IC50 to IRAK4 IC50” value is listed as greater than 455.

`Cc1cc(F)ncc1-c1cn2ncc(C(=O)N[C@H]3C[C@H](C(C)(C)O)C3)c(NC(C)C)c2n1` [Example 113, 2-(6-fluoro-4-methylpyridin-3-yl)-N-((1r,3r)-3-(2-hydroxypropan-2-yl)cyclobutyl)-8-(isopropylamino) imidazo[1,2-b]pyridazine-7-carboxamide]: the IC50 in assay [1] worked out at 96 nM. In addition, in assay [2], the IC50 was greater than 50000 nM and the “Ratio of JAK3 IC50 to IRAK4 IC50” value was greater than 521.

Turning to `CC(C)Nc1c(C(=O)NC[C@@H](F)C(C)(C)O)cnc2cc(-c3cccc(=O)[nH]3)nn12` [Example 145, (R)—N-(2-fluoro-3-hydroxy-3-methylbutyl)-7-(isopropylamino)-2-(6-oxo-1,6-dihydropyridin-2-yl) pyrazolo[1,5-a]pyrimidine-6-carboxamide], the IC50 in assay [1] was 300 nM. In assay [2], the IC50 was greater than 50000 nM and the “Ratio of JAK3 IC50 to IRAK4 IC50” value is greater than 167.

As to `CC(C)Nc1c(C(=O)NC[C@@H](F)C(C)(C)O)cnn2cc(-c3ccccn3)cc12` [Example 16, (R)—N-(2-fluoro-3-hydroxy-3-methylbutyl)-4-(isopropylamino)-6-(pyridin-2-yl)pyrrolo[1,2-b]pyridazine-3-carboxamide], in assay [1], the IC50 turned out to be 17 nM. Moreover, in assay [2], the half-inhibitory concentration (IC50) is greater than 50000 nM and the “Ratio of JAK3 IC50 to IRAK4 IC50” value is greater than 2941.

With `CC(C)(O)CCNc1c(C(=O)NC[C@@H](F)C(C)(C)O)cnn2cc(-c3cccc(F)c3)cc12` [Example 26, (R)—N-(2-fluoro-3-hydroxy-3-methylbutyl)-6-(3-fluorophenyl)-4-((3-hydroxy-3-methylbutyl)amino)pyrrolo[1,2-b] pyridazine-3-carboxamide], the IC50 in assay [1] was 370 nM; in assay [2] it was greater than 50000 nM. Also, the “Ratio of JAK3 IC50 to IRAK4 IC50” value in assay [2] is recorded as greater than 135.
